In patent US20240383923A1, “HETEROARYL DERIVATIVE AND USE THEREOF” (VORONOI INC., priority 2022, published 2024):

What follows are compounds tested on BT-474 cancer cells (assay: Inhibition of BT-474 cell proliferation (CellTiter-Glo)). Conditions: Homo sapiens, BT-474 cells, 120 hours.
Assay type: cell-based
How it was run: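 BT-474 cells in RPMI-1640 with 20% FBS, seeded 48 h before dosing with 11 three-fold dilutions (final 0.2 nM to 10 μM). Viability read by CellTiter-Glo luminescence 120 h after treatment, triplicate tests. GI50 derived from growth rate (%) versus control.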

| GI50 [nM] | Structure (SMILES) |
| --- | --- |
| ≤ 50 | [2H]C([2H])([2H])Oc1cc(Oc2ccn3ncnc3c2)c(C)cc1Nc1ncnc2cc(OC)c(NC(=O)/C=C/[C@H]3CCCN3C)cc12 [Example 148, (R,E)-N-(4-((4-([1,2,4]triazolo[1,5-a]pyridin-7-yloxy)-2-(methoxy-d3)-5-methylphenyl)amino)-7-methoxyquinazolin-6-yl)-3-(1-methylpyrrolidin-2-yl)acrylamide] |
| ≤ 50 | [2H]C([2H])([2H])Oc1cc(Oc2ccn3ncnc3c2)c(C)cc1Nc1ncnc2cc(OC)c(NC(=O)/C(F)=C/[C@H]3CCCN3C)cc12 [Example 149, (R,Z)—N-(4-((4-([1,2,4]triazolo[1,5-a]pyridin-7-yloxy)-2-(methoxy-d3)-5-methylphenyl)amino)-7-methoxyquinazolin-6-yl)-2-fluoro-3-(1-methylpyrrolidin-2-yl)acrylamide] |
| ≤ 50 | [2H]C([2H])([2H])Oc1cc(Oc2ccn3ncnc3c2)c(C)cc1Nc1ncnc2cc(OC)c(NC(=O)/C(F)=C\[C@H]3CCCN3C)cc12 [Example 150, (R,E)-N-(4-((4-([1,2,4]triazolo[1,5-a]pyridin-7-yloxy)-2-(methoxy-d3)-5-methylphenyl)amino)-7-methoxyquinazolin-6-yl)-2-fluoro-3-(1-methylpyrrolidin-2-yl)acrylamide] |
| ≤ 50 | [2H]C([2H])([2H])Oc1cc(Oc2ccn3ncnc3c2)c(F)cc1Nc1ncnc2cc(OC)c(NC(=O)/C(F)=C/[C@H]3CCCN3C)cc12 [Example 151, (R,Z)—N-(4-((4-([1,2,4]triazolo[1,5-a]pyridin-7-yloxy)-5-fluoro-2-(methoxy-d3)phenyl)amino)-7-methoxyquinazolin-6-yl)-2-fluoro-3-(1-methylpyrrolidin-2-yl)acrylamide] |
| ≤ 50 | [2H]C([2H])([2H])Oc1cc(Oc2ccn3ncnc3c2)c(F)cc1Nc1ncnc2cc(OC)c(NC(=O)/C(F)=C\[C@H]3CCCN3C)cc12 [Example 152, (R,E)-N-(4-((4-([1,2,4]triazolo[1,5-a]pyridin-7-yloxy)-5-fluoro-2-(methoxy-d3)phenyl)amino)-7-methoxyquinazolin-6-yl)-2-fluoro-3-(1-methylpyrrolidin-2-yl)acrylamide] |
| ≤ 50 | [2H]C([2H])([2H])N1CCC[C@@H]1/C=C/C(=O)Nc1cc2c(Nc3cc(C)c(Oc4ccn5ncnc5c4)cc3OC)ncnc2cc1OC [Example 153, (R,E)-N-(4-((4-([1,2,4]triazolo[1,5-a]pyridin-7-yloxy)-2-methoxy-5-methylphenyl)amino)-7-methoxyquinazolin-6-yl)-3-(1-(methyl-d3)pyrrolidin-2-yl)acrylamide] |
| ≤ 50 | [2H]C([2H])([2H])N1CCC[C@@H]1/C=C(\F)C(=O)Nc1cc2c(Nc3cc(C)c(Oc4ccn5ncnc5c4)cc3OC)ncnc2cc1OC [Example 154, (R,Z)—N-(4-((4-([1,2,4]triazolo[1,5-a]pyridin-7-yloxy)-2-methoxy-5-methylphenyl)amino)-7-methoxyquinazolin-6-yl)-2-fluoro-3-(1-(methyl-d3)pyrrolidin-2-yl)acrylamide] |
| ≤ 50 | [2H]C([2H])([2H])N1CCC[C@@H]1/C=C(\F)C(=O)Nc1cc2c(Nc3cc(F)c(Oc4ccn5ncnc5c4)cc3OC)ncnc2cc1OC [Example 155, (R,Z)—N-(4-((4-([1,2,4]triazolo[1,5-a]pyridin-7-yloxy)-5-fluoro-2-methoxyphenyl)amino)-7-methoxyquinazolin-6-yl)-2-fluoro-3-(1-(methyl-d3)pyrrolidin-2-yl)acrylamide] |
| ≤ 50 | [2H]C([2H])([2H])N1CCC[C@@H]1/C=C(\F)C(=O)Nc1cc2c(Nc3cc(Cl)c(Oc4ccn5ncnc5c4)cc3OC)ncnc2cc1OC [Example 156, (R,Z)—N-(4-((4-([1,2,4]triazolo[1,5-a]pyridin-7-yloxy)-5-chloro-2-methoxyphenyl)amino)-7-methoxyquinazolin-6-yl)-2-fluoro-3-(1-(methyl-d3)pyrrolidin-2-yl)acrylamide] |
